Laboratory results as given in article PMC5216056 (Nature Communications, 2017).
Several values for one entry are separate records, joined by “and”; a condition that tells them apart may be missing. Identical values can stand only once. Like-named read-outs stand apart in the source and are kept apart here.

Key:
[1] = logD distribution coefficient; conditions: distribution coefficient
[2] = tested on: Na+ channel (site 2); assay type: binding; conditions: 10 µM
[3] = biological target: T1, hCB1R (Homo sapiens, UniProt P21554); assay: cell-based; assay type: cell-based
T1 construct: host or cells: CHO
T1 sequence (P21554 whole entry): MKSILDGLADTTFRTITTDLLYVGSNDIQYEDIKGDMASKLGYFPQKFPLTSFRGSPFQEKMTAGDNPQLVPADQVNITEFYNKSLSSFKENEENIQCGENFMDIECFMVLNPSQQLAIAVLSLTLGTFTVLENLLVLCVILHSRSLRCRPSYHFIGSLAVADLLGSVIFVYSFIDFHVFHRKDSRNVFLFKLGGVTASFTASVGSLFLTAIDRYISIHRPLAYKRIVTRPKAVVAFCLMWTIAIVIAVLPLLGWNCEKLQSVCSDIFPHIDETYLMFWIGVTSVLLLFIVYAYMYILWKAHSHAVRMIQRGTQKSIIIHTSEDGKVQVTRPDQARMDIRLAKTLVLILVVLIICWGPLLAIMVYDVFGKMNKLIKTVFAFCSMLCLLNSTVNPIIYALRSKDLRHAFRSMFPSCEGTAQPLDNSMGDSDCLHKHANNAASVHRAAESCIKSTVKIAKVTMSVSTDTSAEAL

[4] = tested on: PCP; assay type: binding; conditions: 10 µM
[5] = biological target: T2, norepinephrine transporter (h) (Homo sapiens, UniProt P23975); assay: biochemical; assay type: binding; conditions: 10 µM
T2 construct: CEREP (contract assay)
T2 sequence (P23975 whole entry): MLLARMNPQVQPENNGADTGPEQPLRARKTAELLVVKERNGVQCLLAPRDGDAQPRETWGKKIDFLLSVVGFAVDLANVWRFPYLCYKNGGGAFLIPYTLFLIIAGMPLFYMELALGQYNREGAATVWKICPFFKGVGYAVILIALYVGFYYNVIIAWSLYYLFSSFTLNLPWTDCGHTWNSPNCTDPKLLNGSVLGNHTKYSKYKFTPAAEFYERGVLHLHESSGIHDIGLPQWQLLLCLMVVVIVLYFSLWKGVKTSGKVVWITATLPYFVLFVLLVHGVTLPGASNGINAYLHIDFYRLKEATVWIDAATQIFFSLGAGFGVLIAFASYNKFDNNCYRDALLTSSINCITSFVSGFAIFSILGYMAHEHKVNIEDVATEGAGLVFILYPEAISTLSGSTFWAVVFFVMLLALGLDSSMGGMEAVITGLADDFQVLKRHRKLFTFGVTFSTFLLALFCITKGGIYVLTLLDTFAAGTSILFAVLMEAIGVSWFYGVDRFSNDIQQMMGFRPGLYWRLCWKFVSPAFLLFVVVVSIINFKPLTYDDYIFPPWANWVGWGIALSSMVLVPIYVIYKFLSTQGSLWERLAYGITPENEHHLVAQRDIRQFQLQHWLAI

[6] = biological target: T1, hCB1R; assay: biochemical; assay type: biochemical
[7] = biological target: T3, hGPR55 (Homo sapiens, UniProt Q9Y2T6); assay: cell-based; conditions: β-arrestin recruitment
T3 construct: host or cells: CHO-K1 (PathHunter hGPR55_bgal)
T3 sequence (Q9Y2T6 whole entry): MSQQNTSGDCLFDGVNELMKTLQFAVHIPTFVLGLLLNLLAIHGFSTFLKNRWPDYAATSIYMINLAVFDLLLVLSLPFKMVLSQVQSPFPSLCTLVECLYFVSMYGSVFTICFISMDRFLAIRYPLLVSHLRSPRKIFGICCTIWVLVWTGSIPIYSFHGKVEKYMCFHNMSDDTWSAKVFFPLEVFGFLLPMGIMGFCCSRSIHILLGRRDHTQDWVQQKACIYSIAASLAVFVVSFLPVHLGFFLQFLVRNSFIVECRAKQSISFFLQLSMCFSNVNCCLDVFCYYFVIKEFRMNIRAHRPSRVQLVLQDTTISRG

[8] = 1 μM
[9] = biological target: T1, hCB1R; assay: biochemical; assay type: binding
[10] = biological target: T4, Human recombinant TRPV1 (Homo sapiens, UniProt Q8NER1); assay: cell-based; assay type: cell-based; conditions: for IC50: read-out: TRPV1 IC50 for antagonism or desensitization; for EC50: read-out: TRPV1 Potency EC50
T4 construct: expressed in transfected cells; host or cells: HEK293 (TRPV1-HEK-293, gift from John Davis, GlaxoSmithKline)
T4 sequence (Q8NER1 whole entry): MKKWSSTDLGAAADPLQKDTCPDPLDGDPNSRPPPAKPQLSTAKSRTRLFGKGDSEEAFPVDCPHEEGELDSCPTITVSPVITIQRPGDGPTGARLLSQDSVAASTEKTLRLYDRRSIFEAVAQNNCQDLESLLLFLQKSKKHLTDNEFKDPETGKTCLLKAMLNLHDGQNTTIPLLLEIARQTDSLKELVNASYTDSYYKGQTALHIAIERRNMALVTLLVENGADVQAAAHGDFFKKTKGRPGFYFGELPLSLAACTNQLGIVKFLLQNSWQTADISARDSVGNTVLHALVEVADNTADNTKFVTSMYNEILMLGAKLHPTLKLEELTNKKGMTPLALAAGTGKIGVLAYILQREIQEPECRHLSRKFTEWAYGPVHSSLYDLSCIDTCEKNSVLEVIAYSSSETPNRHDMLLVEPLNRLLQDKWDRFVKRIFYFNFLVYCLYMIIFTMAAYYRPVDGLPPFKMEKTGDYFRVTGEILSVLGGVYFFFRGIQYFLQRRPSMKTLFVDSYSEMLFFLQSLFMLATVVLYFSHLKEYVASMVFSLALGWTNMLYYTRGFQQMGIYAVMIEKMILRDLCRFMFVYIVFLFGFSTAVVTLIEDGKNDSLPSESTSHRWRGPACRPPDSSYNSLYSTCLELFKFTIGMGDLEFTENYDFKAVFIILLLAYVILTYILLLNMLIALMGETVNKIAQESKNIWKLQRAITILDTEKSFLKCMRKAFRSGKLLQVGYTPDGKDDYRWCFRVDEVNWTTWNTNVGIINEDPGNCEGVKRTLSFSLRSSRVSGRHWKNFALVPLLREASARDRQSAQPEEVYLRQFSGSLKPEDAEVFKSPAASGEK

[11] = 1 μM; remark: listed apart in the source
[12] = biological target: T5, mCB1R (Mus musculus, UniProt P47746); assay: biochemical; assay type: binding
T5 construct: from tissue; host or cells: brain of male C57BL/6J mice
T5 sequence (P47746 whole entry): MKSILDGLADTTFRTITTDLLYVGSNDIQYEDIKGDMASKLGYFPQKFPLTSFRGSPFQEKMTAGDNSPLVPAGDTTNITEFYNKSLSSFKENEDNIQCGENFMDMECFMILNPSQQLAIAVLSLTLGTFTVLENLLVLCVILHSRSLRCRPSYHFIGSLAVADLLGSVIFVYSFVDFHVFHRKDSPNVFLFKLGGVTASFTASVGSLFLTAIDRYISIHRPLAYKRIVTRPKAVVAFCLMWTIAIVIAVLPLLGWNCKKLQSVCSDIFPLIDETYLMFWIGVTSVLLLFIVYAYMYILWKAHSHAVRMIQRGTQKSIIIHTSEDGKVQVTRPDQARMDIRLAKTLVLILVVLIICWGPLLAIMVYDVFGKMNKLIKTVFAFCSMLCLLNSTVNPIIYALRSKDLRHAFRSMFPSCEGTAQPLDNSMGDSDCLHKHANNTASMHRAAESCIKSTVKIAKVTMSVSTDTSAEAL

[13] = biological target: T6, Rat recombinant TRPM8 (Rattus norvegicus, UniProt Q8R455); assay: TRP channel [Ca2+]i assay; assay type: cell-based; conditions: vs icilin […]; read-out: TRPM8 IC50 for antagonism of icilin
T6 construct: expressed in transfected cells; host or cells: HEK293 (TRPM8-HEK-293, gift from Mario van der Stelt)
T6 sequence (Q8R455 whole entry): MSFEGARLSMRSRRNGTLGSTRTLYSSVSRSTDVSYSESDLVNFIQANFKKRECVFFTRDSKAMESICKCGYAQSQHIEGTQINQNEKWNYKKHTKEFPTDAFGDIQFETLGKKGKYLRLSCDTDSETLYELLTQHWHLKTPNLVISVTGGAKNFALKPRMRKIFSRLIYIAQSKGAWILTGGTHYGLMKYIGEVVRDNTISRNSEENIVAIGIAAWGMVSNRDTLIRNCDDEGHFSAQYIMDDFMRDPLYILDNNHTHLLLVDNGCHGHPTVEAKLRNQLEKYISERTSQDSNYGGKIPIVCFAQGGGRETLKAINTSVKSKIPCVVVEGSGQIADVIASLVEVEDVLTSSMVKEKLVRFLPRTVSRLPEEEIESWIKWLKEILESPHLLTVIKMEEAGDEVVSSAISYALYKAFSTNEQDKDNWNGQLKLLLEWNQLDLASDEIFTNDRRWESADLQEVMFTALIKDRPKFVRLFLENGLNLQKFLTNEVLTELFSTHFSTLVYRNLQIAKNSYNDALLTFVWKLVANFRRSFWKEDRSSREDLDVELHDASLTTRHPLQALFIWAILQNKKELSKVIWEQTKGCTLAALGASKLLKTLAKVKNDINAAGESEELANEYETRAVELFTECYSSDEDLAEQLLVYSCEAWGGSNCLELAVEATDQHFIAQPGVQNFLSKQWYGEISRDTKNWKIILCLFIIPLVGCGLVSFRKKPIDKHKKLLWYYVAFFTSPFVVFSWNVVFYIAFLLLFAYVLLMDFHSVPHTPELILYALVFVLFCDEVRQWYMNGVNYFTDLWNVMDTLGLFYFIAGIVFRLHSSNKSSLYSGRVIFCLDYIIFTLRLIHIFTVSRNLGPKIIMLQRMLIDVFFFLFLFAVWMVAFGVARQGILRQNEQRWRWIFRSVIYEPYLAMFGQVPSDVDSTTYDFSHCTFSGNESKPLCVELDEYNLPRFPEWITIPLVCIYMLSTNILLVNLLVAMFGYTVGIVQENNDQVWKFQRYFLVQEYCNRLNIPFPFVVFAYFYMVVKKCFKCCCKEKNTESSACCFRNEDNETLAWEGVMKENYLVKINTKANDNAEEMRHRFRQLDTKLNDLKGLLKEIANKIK

[14] = biological target: hCB2R (Homo sapiens, UniProt P34972); set-up: expressed in transfected cells; host or cells: Flp-In-293 (Invitrogen #R750-07), pcDNA5/FRT
Sequence of hCB2R (P34972 whole entry): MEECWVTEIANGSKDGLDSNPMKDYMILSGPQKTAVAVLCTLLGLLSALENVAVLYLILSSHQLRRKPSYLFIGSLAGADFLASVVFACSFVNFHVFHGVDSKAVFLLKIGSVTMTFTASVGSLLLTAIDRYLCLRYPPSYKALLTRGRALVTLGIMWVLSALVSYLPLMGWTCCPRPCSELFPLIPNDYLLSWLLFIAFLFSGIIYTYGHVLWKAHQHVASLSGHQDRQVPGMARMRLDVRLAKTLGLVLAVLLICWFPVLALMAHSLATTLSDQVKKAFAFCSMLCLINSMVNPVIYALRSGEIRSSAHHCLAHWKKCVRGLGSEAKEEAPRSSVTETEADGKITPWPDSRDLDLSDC

[15] = biological target: T1, hCB1R; assay: cell-based; assay type: cell-based; remark: listed apart in the source
[16] = i.v., mice
[17] = biological target: T7, PPARgamma (h) (Homo sapiens, UniProt P37231); assay: CEREP panel; assay type: binding; conditions: 10 µM
T7 construct: CEREP (contract assay)
T7 sequence (P37231 1-505): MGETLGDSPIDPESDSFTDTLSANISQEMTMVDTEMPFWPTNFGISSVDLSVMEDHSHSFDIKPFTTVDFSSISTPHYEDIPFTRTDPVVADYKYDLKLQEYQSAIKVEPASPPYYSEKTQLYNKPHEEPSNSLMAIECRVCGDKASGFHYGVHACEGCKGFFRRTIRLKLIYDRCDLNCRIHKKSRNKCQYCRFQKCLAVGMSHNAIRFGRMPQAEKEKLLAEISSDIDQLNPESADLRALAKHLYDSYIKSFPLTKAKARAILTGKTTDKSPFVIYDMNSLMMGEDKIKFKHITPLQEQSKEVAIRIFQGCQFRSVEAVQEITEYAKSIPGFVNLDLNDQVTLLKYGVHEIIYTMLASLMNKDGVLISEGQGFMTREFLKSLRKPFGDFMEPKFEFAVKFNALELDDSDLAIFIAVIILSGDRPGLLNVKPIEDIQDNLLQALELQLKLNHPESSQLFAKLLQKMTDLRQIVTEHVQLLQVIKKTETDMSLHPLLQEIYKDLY

[18] = tested on: AEA cellular uptake in HMC-1 cells; assay: cells; assay type: cell-based, human; conditions: read-out: AEA reuptake IC50 (95% CI) HMC-1 cells; FAAH-deficient cells
[19] = tested on: AEA cellular uptake in U937 cells; assay: cells; assay type: cell-based, human

CCCC(C)(C)c1ccc2c(c1)OC(C)(C)[C@@H]1CC=C(C)C[C@@H]21 [JWH133]
logD [1]: > 3 | % inhibition Na+ channel (site 2) [2]: -20% | Emax ± SEM pERK hCB1R [3]: 10 ± 3 | pEC50 ± SEM pERK hCB1R [3]: < 4 | % inhibition PCP [4]: 2% | % inhibition norepinephrine transporter (h) [5]: -9% | Emax ± SEM GTPγS hCB1R [6]: 20% | pEC50 ± SEM GTPγS hCB1R [6]: 7.37 ± 0.16 | GPR55 Emax ± SEM (%) or % effect at 10 µM [7]: -2 ± 3% | GPR55 pEC50 (± SEM) [7]: < 5 | CL hepatocytes mouse [8]: 9.8 µL/min/mio cells | pKi ± SEM hCB1R [9]: < 5 | TRPV1 Efficacy (% ionomycin 4μM) [10]: 24.6% | IC50 [10]: 77.7 ± 3 µM | EC50 [10]: 8.2 µM | CL microsomes human [11]: 38 µL/min/mg protein | pKi ± SEM mCB1R [12]: 6.09 ± 0.13 | IC50 [13]: 48.4 ± 3.5 µM | GIRK-GTPγS bias factor (BF) [14]: 1.32 | GIRK-GTPγS ΔΔlogR [14]: 0.12 ± 0.57 | GIRK-cAMP bias factor (BF) [14]: 3.54 | GIRK-cAMP ΔΔlogR [14]: 0.55 ± 0.42 | GTPγS-cAMP bias factor (BF) [14]: 2.67 | GTPγS-cAMP ΔΔlogR [14]: 0.43 ± 0.40 | LogR GIRK [14]: 5.98 | LogR GTPγS [14]: 6.27 | LogR cAMP [14]: 8.28 | LogR pERK [14]: 7.07 | LogR β-AR [14]: 8.02 | RE GIRK [14]: 0.01 | RE GTPγS [14]: 0.01 | RE cAMP [14]: 0.004 | RE pERK [14]: 0.01 | RE β-AR [14]: 0.33 | pERK-GIRK bias factor (BF) [14]: 0.84 | pERK-GIRK ΔΔlogR [14]: -0.08 | pERK-GTPγS bias factor (BF) [14]: 1.11 | pERK-GTPγS ΔΔlogR [14]: 0.05 ± 0.46 | pERK-cAMP bias factor (BF) [14]: 2.97 | pERK-cAMP ΔΔlogR [14]: 0.47 ± 0.26 | ΔLogR GIRK [14]: -1.89 | ΔLogR GTPγS [14]: -2.01 | ΔLogR cAMP [14]: -2.44 | ΔLogR pERK [14]: -1.96 | ΔLogR β-AR [14]: -0.48 | β-AR-GIRK bias factor (BF) [14]: 25.53 | β-AR-GIRK ΔΔlogR [14]: 1.41 ± 0.43 | β-AR-GTPγS bias factor (BF) [14]: 33.81 | β-AR-GTPγS ΔΔlogR [14]: 1.53 ± 0.41 | β-AR-cAMP bias factor (BF) [14]: 90.36 | β-AR-cAMP ΔΔlogR [14]: 1.96 ± 0.15 | β-AR-pERK bias factor (BF) [14]: 30.41 | β-AR-pERK ΔΔlogR [14]: 1.48 ± 0.27 | Emax ± SEM β-AR recruitment hCB1R [15]: 40 ± 7 | pEC50 ± SEM β-AR recruitment hCB1R [15]: 5.37 ± 0.05 | AUCinf [16]: 1.75 µg·h/mL | AUCinf/dose [16]: 1090 kg·ng·h/mL/mg | AUClast [16]: 1.65 µg·h/mL | CL [16]: 0.92 L/h/kg | T1/2 [16]: 1.1 h and 1 h | Vss [16]: 1.32 L/kg and 1 to 3 L/kg | C0 ([16]; 1.0-2.0 mg/kg, extrapolated): 3.87 µg/mL | % inhibition PPARgamma (h) [17]: -5%

CN1CCCC[C@@H]1Cn1cc(C(=O)c2cc([N+](=O)[O-])ccc2I)c2ccccc21 [(R)-AM1241]
logD [1]: 3.66 | Emax ± SEM pERK hCB1R [3]: 78 ± 12 | pEC50 ± SEM pERK hCB1R [3]: 5.66 ± 0.19 | Emax ± SEM GTPγS hCB1R [6]: 47 ± 8 | pEC50 ± SEM GTPγS hCB1R [6]: 6.78 ± 0.40 | IC50 [18]: > 5 µM | pKi ± SEM hCB1R ([9]; CHO membranes, Leiden, HU210 and SR144528 from Roche): 6.86 ± 0.46 | AEA reuptake Efficacy (% inhibition) U937 cells ([19]; from dose-response): 77% | IC50 ([19]; read-out: AEA reuptake IC50 (95% CI) U937 cells): 4.81 µM | TRPV1 Efficacy (% ionomycin 4μM) [10]: 10.7% | IC50 [10]: > 50 µM | EC50 [10]: > 50 µM | CL microsomes human [11]: 304 µL/min/mg protein | pKi ± SEM mCB1R ([12]; mouse brain membranes): 6.36 ± 0.13 | IC50 [13]: > 50 µM | GIRK-GTPγS bias factor (BF) ([14]; hCB2R): 0.04 | GIRK-GTPγS ΔΔlogR ([14]; hCB2R): -1.39 | LogR GIRK ([14]; hCB2R): 5.48 | LogR GTPγS ([14]; hCB2R): 7.3 | LogR pERK ([14]; hCB2R): 8.12 | LogR β-AR ([14]; hCB2R): 7.21 | pERK-GIRK bias factor (BF) ([14]; hCB2R): 29.32 | pERK-GIRK ΔΔlogR ([14]; hCB2R): 1.47 ± 0.37 | pERK-GTPγS bias factor (BF) ([14]; hCB2R): 1.18 | pERK-GTPγS ΔΔlogR ([14]; hCB2R): 0.07 ± 0.55 | β-AR-GIRK bias factor (BF) ([14]; hCB2R): 12.13 | β-AR-GIRK ΔΔlogR ([14]; hCB2R): 1.08 ± 0.36 | β-AR-GTPγS bias factor (BF) ([14]; hCB2R): 0.49 | β-AR-GTPγS ΔΔlogR ([14]; hCB2R): -0.31 ± 0.54 | β-AR-pERK bias factor (BF) ([14]; hCB2R): 0.41 | β-AR-pERK ΔΔlogR ([14]; hCB2R): -0.38 ± 0.39 | ΔLogR GIRK ([14]; hCB2R, reference CP55940): -2.38 | ΔLogR GTPγS ([14]; hCB2R, reference CP55940): -0.99 | ΔLogR pERK ([14]; hCB2R, reference CP55940): -0.91 | ΔLogR β-AR ([14]; hCB2R, reference CP55940): -1.30 | RE GIRK ([14]; hCB2R, relative effectiveness): 0.004 | RE GTPγS ([14]; hCB2R, relative effectiveness): 0.10 | RE pERK ([14]; hCB2R, relative effectiveness): 0.12 | RE β-AR ([14]; hCB2R, relative effectiveness): 0.05 | Emax ± SEM β-AR recruitment hCB1R [15]: 26 ± 2 | pEC50 ± SEM β-AR recruitment hCB1R [15]: 5.59 ± 0.13
